Among the data in US20250074906A1, “AZAINDOLE DERIVATIVE THAT INHIBITS H-PGDS” (SATO PHARMACEUTICAL CO., LTD., priority 2021, published 2025) are IC50 values, retold here.

One may read the IC50 as the concentration that inhibits the measured activity by half.

In this experiment the target is T1, Recombinant human H-PGDS (Homo sapiens, UniProt O60760).
T1 construct: made in house; host or cells: E. coli
T1 sequence (O60760 whole entry): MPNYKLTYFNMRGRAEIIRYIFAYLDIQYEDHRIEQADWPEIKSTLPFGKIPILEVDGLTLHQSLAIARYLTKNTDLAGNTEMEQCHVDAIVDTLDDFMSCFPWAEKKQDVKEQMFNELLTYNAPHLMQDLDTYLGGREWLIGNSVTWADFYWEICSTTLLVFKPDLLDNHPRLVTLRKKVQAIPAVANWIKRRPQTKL
The experiment in a line: H-PGDS inhibitory activity (prostaglandin D2 production measured by LC-MS/MS). Type of experiment: biochemical. Particulars: recombinant human H-PGDS 1.0 nM expressed in E. coli; prostaglandin H2 25 μM; 15 min preincubation and 1 min reaction on ice. The protocol: The H-PGDS inhibitory activity of each Example compound was measured according to the method described in WO 2007/041634.
Recombinant human H-PGDS (final concentration: 1.0 nM) expressed in E. coli was mixed in an assay buffer containing 20 mM Tris-HCl (pH 8.0), 2 mM magnesium chloride, 2 mM reduced glutathione, and 0.5 mg/mL γ-globulin, and 150 μL of the mixture was dispensed into an 8-strip PCR tube (BM Equipment Co., Ltd). Test compounds (Example compounds) (16.5 μL) at various concentrations dissolved in DMSO were added and the mixture was preincubated for 15 minutes on ice.
Prostaglandin H2 (final concentration: 25 μM) (Cayman Chemical) was dispensed into another 8-strip PCR tube, and the solvent was dried and solidified using a vacuum concentrator (Thermo Fisher Scientific). To the dried and solidified prostaglandin H2 was added 50 μL of the assay buffer containing H-PGDS and each test compound after the preincubation, and the mixture was reacted on ice for 1 minute. 40 μL of this mixture was added to 40 μL of a stop solution (50 mM aqueous citric acid solution containing iron chloride at a final concentration of 4 mg/mL) to stop the reaction. Then, the reaction solution was deproteinized, added to a 96 square deep well plate (SHONANMARUHACHI STEC Co., Ltd.), and the prostaglandin D2 concentration in the reaction solution was measured by LC-MS/MS. ACQUITY (registered trademark) TQD (Waters) was used as a measuring instrument.
Prostaglandin D2 production activity (%) in the group with each test compound when a value obtained by subtracting the amount of production of prostaglandin D2 in the group without enzyme, which is non-specific production of prostaglandin D2, from the amount of production of prostaglandin D2 in the group without test compound (DMSO-addition group) in each 8-strip PCR tube is 100% was calculated. From the calculated activity value, the test compound concentration that inhibits prostaglandin D2 production by 50% (IC50) was determined.
As for `Cc1cnc(-c2ccc(C(=O)NC34CCC(O)(CC3)CC4)cc2)c2cc[nH]c12` [Example 1, N-(4-hydroxybicyclo[2.2.2]octan-1-yl)-4-(7-methyl-1H-pyrrolo[3,2-c]pyridin-4-yl)benzamide], the IC50 worked out at 0.99 nM. Turning to `Cc1cnc(-c2ccc(C(=O)N[C@H]3CC[C@](C)(O)CC3)cc2)c2cc[nH]c12` [Example 2, N-(trans-4-hydroxy-4-methylcyclohexyl)-4-(7-methyl-1H-pyrrolo[3,2-c]pyridin-4-yl)benzamide], the IC50 was determined as 1.3 nM.

As for `Cc1cnc(-c2ccc(C(=O)N[C@H]3CC[C@H](C4(O)CC4)CC3)cc2)c2cc[nH]c12` [Example 3, N-[trans-4-(1-hydroxycyclopropyl)cyclohexyl]-4-(7-methyl-1H-pyrrolo[3,2-c]pyridin-4-yl)benzamide], the concentration for half-maximal inhibition (IC50) is 1.9 nM.

As for `Cc1cnc(-c2ccc(C(=O)N[C@H]3CC[C@H](OCC(C)(C)O)CC3)cc2)c2cc[nH]c12` [Example 4, N-[trans-4-(2-hydroxy-2-methylpropoxy)cyclohexyl]-4-(7-methyl-1H-pyrrolo[3,2-c]pyridin-4-yl)benzamide], the concentration for half-maximal inhibition (IC50) is 1.5 nM. Take `C[C@]1(O)CC[C@H](NC(=O)c2ccc(-c3nccc4[nH]ccc34)c(F)c2)CC1` [Example 5, 3-fluoro-N-(trans-4-hydroxy-4-methylcyclohexyl)-4-(1H-pyrrolo[3,2-c]pyridin-4-yl)benzamide]: the IC50 worked out at 1 nM.

Regarding `O=C(NC12CCC(O)(CC1)CC2)c1ccc(-c2nccc3[nH]ccc23)c(F)c1` [Example 6, 3-fluoro-N-(4-hydroxybicyclo[2.2.2]octan-1-yl)-4-(1H-pyrrolo[3,2-c]pyridin-4-yl)benzamide], the IC50 turned out to be 1.1 nM. To `N#CC12CCC(NC(=O)c3ccc(-c4nccc5[nH]ccc45)c(F)c3)(CC1)CC2` [Example 7, N-(4-cyanobicyclo[2.2.2]octan-1-yl)-3-fluoro-4-(1H-pyrrolo[3,2-c]pyridin-4-yl)benzamide] belongs 1.3 nM. To `NC(=O)C12CCC(NC(=O)c3ccc(-c4nccc5[nH]ccc45)c(F)c3)(CC1)CC2` [Example 8, 4-[3-fluoro-4-(1H-pyrrolo[3,2-c]pyridin-4-yl)benzamide]bicyclo[2.2.2]octane-1-carboxamide] belongs 0.75 nM. To `CC(C)(O)CO[C@H]1CC[C@H](NC(=O)c2ccc(-c3nccc4[nH]ccc34)c(F)c2)CC1` [Example 9, 3-fluoro-N-[trans-4-(2-hydroxy-2-methylpropoxy)cyclohexyl]-4-(1H-pyrrolo[3,2-c]pyridin-4-yl)benzamide] belongs 1.2 nM. As for `O=C(NC12CCC(O)(CC1)C2)c1ccc(-c2nccc3[nH]ccc23)c(F)c1` [Example 10, 3-fluoro-N-(4-hydroxybicyclo[2.2.1]heptan-1-yl)-4-(1H-pyrrolo[3,2-c]pyridin-4-yl)benzamide], the IC50 was 1 nM.

Regarding `O=C(N[C@H]1CC[C@H](C2(O)CC2)CC1)c1ccc(-c2nccc3[nH]ccc23)c(F)c1` [Example 11, 3-fluoro-N-[trans-4-(1-hydroxycyclopropyl)cyclohexyl]-4-(1H-pyrrolo[3,2-c]pyridin-4-yl)benzamide], the IC50 was 3.9 nM. For `O=C(N[C@H]1CC[C@H](O)CC1)c1ccc(-c2nccc3[nH]ccc23)c(F)c1` [Example 12, 3-fluoro-N-(trans-4-hydroxycyclohexyl)-4-(1H-pyrrolo[3,2-c]pyridin-4-yl)benzamide] the value was 0.88 nM.

As for `CC(C)(O)[C@H]1CC[C@H](NC(=O)c2ccc(-c3ncc(F)c4[nH]ccc34)cc2)CC1` [Example 13, 4-(7-fluoro-1H-pyrrolo[3,2-c]pyridin-4-yl)-N-[trans-4-(2-hydroxypropan-2-yl)cyclohexyl]benzamide], the IC50 turned out to be 1.4 nM. As for `CC(C)(O)[C@H]1CC[C@H](NC(=O)c2ccc(-c3ncc(Cl)c4[nH]ccc34)cc2)CC1` [Example 14, 4-(7-chloro-1H-pyrrolo[3,2-c]pyridin-4-yl)-N-[trans-4-(2-hydroxypropan-2-yl)cyclohexyl]benzamide], the IC50 was found to be 1.2 nM. For `CC(C)(O)[C@H]1CC[C@H](NC(=O)c2ccc(-c3ncc(C#N)c4[nH]ccc34)cc2)CC1` [Example 15, 4-(7-cyano-1H-pyrrolo[3,2-c]pyridin-4-yl)-N-[trans-4-(2-hydroxypropan-2-yl)cyclohexyl]benzamide] the value was 3.4 nM; for `O=C(NC12CCC(O)(CC1)CC2)c1ccc(-c2ncc(F)c3[nH]ccc23)cc1` [Example 16, 4-(7-fluoro-1H-pyrrolo[3,2-c]pyridin-4-yl)-N-(4-hydroxybicyclo[2.2.2]octan-1-yl)benzamide], 0.99 nM; for `O=C(NC12CCC(O)(CC1)CC2)c1ccc(-c2ncc(Cl)c3[nH]ccc23)cc1` [Example 17, 4-(7-chloro-1H-pyrrolo[3,2-c]pyridin-4-yl)-N-(4-hydroxybicyclo[2.2.2]octan-1-yl)benzamide], 0.69 nM. To `CC(C)(O)[C@H]1CC[C@H](NC(=O)c2ccc(-c3ncc(C(F)F)c4[nH]ccc34)cc2)CC1` [Example 18, 4-[7-(difluoromethyl)-1H-pyrrolo[3,2-c]pyridin-4-yl]-N-[trans-4-(2-hydroxypropan-2-yl)cyclohexyl]benzamide] belongs 2.8 nM; to `O=C(NC12CCC(O)(CC1)C2)c1ccc(-c2ncc(F)c3[nH]ccc23)cc1` [Example 19, 4-(7-fluoro-1H-pyrrolo[3,2-c]pyridin-4-yl)-N-(4-hydroxybicyclo[2.2.1]heptan-1-yl)benzamide], 1.4 nM; to `O=C(N[C@H]1CC[C@H](O)CC1)c1ccc(-c2ncc(F)c3[nH]ccc23)cc1` [Example 20, 4-(7-fluoro-1H-pyrrolo[3,2-c]pyridin-4-yl)-N-(trans-4-hydroxycyclohexyl)benzamide], 0.94 nM. To `C[C@]1(O)CC[C@H](NC(=O)c2ccc(-c3ncc(F)c4[nH]ccc34)cc2)CC1` [Example 21, 4-(7-fluoro-1H-pyrrolo[3,2-c]pyridin-4-yl)-N-(trans-4-hydroxy-4-methylcyclohexyl)benzamide] belongs 1.7 nM. Regarding `CC(C)(O)CO[C@H]1CC[C@H](NC(=O)c2ccc(-c3ncc(F)c4[nH]ccc34)cc2)CC1` [Example 22, 4-(7-fluoro-1H-pyrrolo[3,2-c]pyridin-4-yl)-N-[trans-4-(2-hydroxy-2-methylpropoxy)cyclohexyl]benzamide], the IC50 was found to be 2.1 nM. To `O=C(N[C@H]1CC[C@@H](O)CC1)c1ccc(-c2ncc(F)c3[nH]ccc23)cc1` [Example 23, 4-(7-fluoro-1H-pyrrolo[3,2-c]pyridin-4-yl)-N-(cis-4-hydroxycyclohexyl)benzamide] belongs 0.79 nM. For `O=C(NC1CCOCC1)c1ccc(-c2ncc(F)c3[nH]ccc23)cc1` [Example 24, 4-(7-fluoro-1H-pyrrolo[3,2-c]pyridin-4-yl)-N-(tetrahydropyran-4-yl)benzamide] the value was 0.86 nM.

Take `O=C(NC1CCS(=O)(=O)CC1)c1ccc(-c2ncc(F)c3[nH]ccc23)cc1` [Example 25, N-(1,1-dioxotetrahydrothiopyran-4-yl)-4-(7-fluoro-1H-pyrrolo[3,2-c]pyridin-4-yl)benzamide]: the IC50 was 0.7 nM. To `N#C[C@H]1CC[C@H](NC(=O)c2ccc(-c3ncc(F)c4[nH]ccc34)cc2)CC1` [Example 26, N-(trans-4-cyanocyclohexyl)-4-(7-fluoro-1H-pyrrolo[3,2-c]pyridin-4-yl)benzamide] belongs 1.3 nM; to `NC(=O)[C@H]1CC[C@H](NC(=O)c2ccc(-c3ncc(F)c4[nH]ccc34)cc2)CC1` [Example 27, N-(trans-4-carbamoylcyclohexyl)-4-(7-fluoro-1H-pyrrolo[3,2-c]pyridin-4-yl)benzamide], 2.3 nM. To `O=C(NC1CCOCC1)c1ccc(-c2ncc(Cl)c3[nH]ccc23)cc1` [Example 28, 4-(7-chloro-1H-pyrrolo[3,2-c]pyridin-4-yl)-N-(tetrahydropyran-4-yl)benzamide] belongs 1.7 nM; to `O=C(NC1CCS(=O)(=O)CC1)c1ccc(-c2ncc(Cl)c3[nH]ccc23)cc1` [Example 29, 4-(7-chloro-1H-pyrrolo[3,2-c]pyridin-4-yl)-N-(1,1-dioxotetrahydrothiopyran-4-yl)benzamide], 0.85 nM; to `O=C(N[C@H]1CC[C@H](O)CC1)c1ccc(-c2ncc(Cl)c3[nH]ccc23)cc1` [Example 30, 4-(7-chloro-1H-pyrrolo[3,2-c]pyridin-4-yl)-N-(trans-4-hydroxycyclohexyl)benzamide], 0.68 nM.

On to `C[C@]1(O)CC[C@@H](NC(=O)c2ccc(-c3ncc(Cl)c4[nH]ccc34)cc2)CC1` [Example 31, 4-(7-chloro-1H-pyrrolo[3,2-c]pyridin-4-yl)-N-(cis-4-hydroxy-4-methylcyclohexyl)benzamide], for which the IC50 is 1 nM.
